Source: US20200289605A1, “COMPOSITION FOR IMPROVING OR PREVENTING NONALCOHOLIC FATTY LIVER” (KOHJIN LIFE SCIENCES CO., LTD., priority 2015, published 2020)

Assays:
[1] = test system: subjects who had NAFLD in 31 IU/L or more of ALT
[2] = test system: Mice (C57/B6J) fed with high-fat food
Source text: Mice (C57/B6J, 8 weeks old male) were divided into 4 groups (5 animals each), and the first group (DB) was freely fed with ordinary food (Certified Diet “MF” manufactured by Oriental Yeast Co., ltd.). The second group (HFD) was freely fed with high-fat food (High Fat Diet 32, manufactured by CLEA Japan, Inc.), […].
When the mouse was 20 weeks old, the body weight, the liver weight, the serum aspartate aminotransferase (AST), the alanine aminotransferase (ALT), the serum triglyceride (TG), the free fatty acid value (FFA) and the total cholesterol value (T-cho) were measured.

[3] = HFD6 and HFD60 groups in comparison to the HFD group, 20 weeks old
[4] = high-fat food mice, glutathione 6 or 60 mg/kg/day in water, 20 weeks old

**Q.** With `N[C@@H](CCC(=O)N[C@@H](CS)C(=O)NCC(=O)O)C(=O)O` [glutathione] as the compound, how does the “Effect of the present invention (ALT criterion)” value ([1]; Case IDs 10 to 16, 300 mg per day oral) read?
**A.** not affected

**Q.** And the “FibroScan (after treatment) CAP” value ([1]; after treatment, oral glutathione 300 mg per day, one value per subject (Case ID))?
**A.** 280 dBe

**Q.** What about the “FFA (free fatty acid value)” value [2, 3] of the same compound?
**A.** significant decrease

**Q.** What about the “T-cho (total cholesterol value)” value [2, 3] of the same compound?
**A.** significant decrease

**Q.** What about the “TG (triglyceride value)” value [2, 3] of the same compound?
**A.** significant decrease

**Q.** And the “serum ALT” value [2, 3]?
**A.** significant decrease

**Q.** And the “serum AST” value [2, 3]?
**A.** significant decrease

**Q.** What about the “deposition of fat on the liver by high-fat food” value ([2]; high-fat food mice, glutathione 6 or 60 mg/kg/day in water) of the same compound?
**A.** suppressed

**Q.** What about the liver weight [2, 4] of the same compound?
**A.** decreased dependently on the concentration

**Q.** What about the “ratio of liver weight/body weight” value [2, 4] of the same compound?
**A.** decrease of the body weight ratio was also recognized
